Measured values taken from BigSolDB 2.1.

COC(=O)c1cc(OC)c2c(c1-c1c(C(=O)OC)cc(OC)c3c1OCO3)OCO2
solubility (mole fraction)
Settings	293.15 K	303.15 K	313.15 K	323.15 K	333.15 K
in acetone	0.00457	0.0068	0.0104	0.0174	–
in acetonitrile	0.00542	0.00808	0.0123	0.0189	–
in ethanol	6.48e-05	0.000114	0.000277	0.000523	0.00102
in ethyl acetate	0.00302	0.0044	0.00659	0.0103	–
in isopropanol	6.44e-05	0.00011	0.000223	0.000484	0.00107
in methanol	7.18e-05	0.000121	0.000275	0.000459	–
in methyl acetate	0.00549	0.00775	0.0124	0.0193	–
in n-butanol	5.71e-05	0.000114	0.000214	0.000511	0.00104
in n-butyl acetate	0.00137	0.00199	0.00318	0.00554	0.00831
in n-pentanol	6.14e-05	0.000114	0.000199	0.000388	0.00104
in n-pentyl acetate	0.0011	0.00154	0.00244	0.00387	0.00649
in n-propanol	5.78e-05	0.000104	0.000211	0.000479	0.00107
in n-propyl acetate	0.00171	0.00279	0.00423	0.00659	0.0117
